{"source": "patent US11116727B2", "about": "“Preparation containing 6,7-unsaturated-7-carbamoyl morphinan derivatives” (Shionogi & Co., Ltd., priority 2012, dated 2021)", "experiment": "Water solubility of the p-toluenesulfonic acid salt at different pH", "type": "physicochemical", "method": "The water solubility of p-toluenesulfonic acid salt of the compound represented by the above formula (IA), namely 17-(cyclopropylmethyl)-6,7-didehydro-4,5α-epoxy-3,6,14-trihydroxy-N-[2-(3-phenyl-1,2,4-oxadiazol-5-yl) propan-2-yl]morphinan-7-carboxamide 4-methylbenzene sulfonic acid is more than 1,000 μg/mL in pH 1 or 4, but the water solubility in pH 7 decreases than the solubility in pH 1 or 4.", "data": [{"smiles": "CC(C)(NC(=O)C1=C(O)[C@@H]2Oc3c(O)ccc4c3[C@@]23CCN(CC2CC2)[C@H](C4)[C@]3(O)C1)c1nc(-c2ccccc2)no1", "note": "[17-(cyclopropylmethyl)-6,7-didehydro-4,5α-epoxy-3,6,14-trihydroxy-N-[2-(3-phenyl-1,2,4-oxadiazol-5-yl)propan-2-yl]morphinan-7-carboxamide 4-methylbenzenesulfonic acid]", "values": [{"measurement": "water solubility", "setting": "pH 7, compared with pH 1 or 4", "value": "decreases"}, {"measurement": "solubility", "setting": "water, simulated gastric fluid, pH 1 or 4", "value": "> 1000", "unit": "µg/mL"}]}]}
